From a melting point compilation (Tetko et al.; mined from patent text by program, amines drawn as free bases though some values may be those of a salt) come the findings set out here.

By melting point is commonly meant the temperature of the solid-liquid transition. Compound `CN(C)C(=O)N1CC(Oc2ccc(C(F)(F)F)cc2Cl)C1` came in with a melting point of 106 to 108 °C.

With `O=c1[nH]cc(-c2ccccc2)c2ncccc12`, the melting point is 260 to 263 °C.

With `COc1cc(C#CC(=O)O)cc(OC)c1OCc1ccccc1`, the melting point was 115 to 116 °C.

In turn, `Cc1nc2c3c(ccn2c1C)[C@@H](OCCS(C)=O)[C@H](O)[C@@H](c1ccccc1)N3` (stereo partly drawn) displayed a melting point of 105 to 106 °C.

`Clc1ccccc1C1(c2ccc(-c3ccccc3)cc2)CO1` (stereo not drawn) displayed a melting point of 70 °C.

Turning to `CC(C)(C)n1nnc(Cc2ccc(C(=O)O)cc2)n1`, the melting point was 139 to 140 °C.

Take `O=C(Oc1ccccc1)c1cc([N+](=O)[O-])c2ccccc2c1O`: the melting point came to 157 °C.

Turning to `Cc1ccc(N(C(=O)CCl)c2c(C)cccc2Cl)cc1`, the melting point lay within 113 to 114 °C.

Turning to `CCCc1c(C(=O)C(C)C)c2ccc(C(=O)OC)cc2n1Cc1ccccc1C#N`, the melting point was in the range of 159 to 161 °C.

Compound `CC(C)(C)c1ccc2c(c1)C(C(=O)Nc1c(Cl)cccc1Cl)c1ccccc1CO2` (stereo not drawn) gave a melting point of 115 to 117 °C.

Compound `C[C@H](CO)Nc1nc(SCc2cccc(F)c2F)nc2[nH]c(=O)c(NCCO)nc12` came in with a melting point of 197 to 199 °C.

In the case of `Nc1nnc(-c2ccc(C(F)(F)F)cc2)cc1C(F)(F)F`, the melting point lay in the range of 186 to 190 °C.

Compound `S=C(NCc1cccc(Cl)c1)N1CCc2c([nH]c3ccccc23)C1c1ccc2c(c1)OCO2` (stereo not drawn) displayed a melting point of 189 to 191 °C.

`OC1CC(NCc2ccccc2)c2ccccc21` (stereo not drawn) displayed a melting point of 125 to 127 °C.

Turning to `COc1cc(Nc2c(C#N)cnc3cc(C#CCCO)c(OC)cc23)c(Cl)cc1Cl`, the melting point is 230 to 232 °C.

In turn, `CC(C)(C)OC(=O)c1ccsc1NC(=O)Nc1ccc(Oc2ccccc2)cc1` came in with a melting point of 203 to 205 °C.

For `CCOC(=O)c1cc2sc(C3CCC(c4c(F)cccc4F)=N3)cc2s1` (stereo not drawn), the melting point was determined as 107 °C.

Consider `COC(=O)CCCc1cc2nc(Cl)ccc2n1S(=O)(=O)c1ccc(N(C)C)cc1Cl`, for which the melting point is 123 to 124 °C.

The compound `CC(C)[C@H](NC(=O)OC(C)(C)C)[C@H]1CCn2c(c(C3=C(c4cn(-c5ccccc5)c5ccccc45)C(=O)NC3=O)c3ccccc32)C1` came in with a melting point of 165 to 168 °C.

For the compound `O=C(CCl)c1ncccn1`, the melting point was in the range of 73 to 80 °C.

Consider `COCc1nc2c(NC(=O)C(C)(C)C)cccn2c1C`, for which the melting point was determined as 104 °C.

The compound `Cc1ccc(S(=O)(=O)n2ccc3cc(Br)ccc32)cc1` gave a melting point of 135 °C.

In turn, `O=C(CCNC(=O)c1ccccc1C(=O)O)NO` gave a melting point of 58 to 65 °C.

The compound `Cc1oc2c(-c3ccc(F)cc3)c(-c3ccc(S(C)(=O)=O)cc3)nn2c1C` registered a melting point of 158 to 160 °C.

With `CCN1CCc2c(Br)ccc([N+](=O)[O-])c2C1`, the melting point lay within 52 to 53 °C.

`COC(=O)C1(C)CCCC2(C)c3c(OC)cc(C(C)C)c(OC)c3CCC12` (stereo not drawn) gave a melting point of 133 to 135 °C.

With `CCN(CC)C(=O)c1cc(-c2ccccc2)c(=O)n2c1-c1cc(Cl)ccc1CN2`, the melting point fell in the range of 192 to 194 °C.

The compound `COC(=O)c1c(N(CC(C)C)CC(C)C)cccc1S(=O)(=O)NC(=O)Nc1nc(OC)cc(OC)n1` gave a melting point of 166 to 167 °C.

`CC(Cc1ccc(OCc2ccccc2)cc1)NCC(O)c1cccc(Cl)c1` (stereo not drawn) returned a melting point of 95 to 99 °C.

As to `COc1ccc(-c2cc(C(F)(F)F)nn2-c2ccc(S(N)(=O)=O)c(F)c2)cc1`, the melting point lay within 130 to 131 °C.

As for `N#Cc1ccc2nc(C(=O)NCc3cccc(CNC(=O)Cc4nc[nH]n4)c3)[nH]c(=O)c2c1`, the melting point was in the range of 207 to 208 °C.

On to `CCCCc1c(C(=O)c2ccc(O)cc2)n(C)c2ccc([N+](=O)[O-])cc12`, for which the melting point worked out at 172 °C.

On to `Cn1nnnc1S(=O)(=O)CCCCBr`, for which the melting point was in the range of 83.5 to 85.5 °C.

As to `CCCCN(Cc1ccc(-c2ccccc2-c2nnn[nH]2)cc1)c1nnn(CC(C)C)c1C(=O)O`, the melting point fell in the range of 105 to 106 °C.

Take `CCOc1ccc(S(=O)(=O)N2CCN(CC)CC2)cc1C#N`: the melting point was in the range of 86 to 88 °C.

With `Cn1cnnc1SCCCCCN1CCN(c2cccc(C(F)(F)F)c2)CC1`, the melting point was in the range of 70 to 76 °C.

`CN(C)CCCn1cc(C(=O)NCc2ccc(Cl)cc2)c(=O)c2cc(C#CCO)ccc21` came in with a melting point of 172 to 175 °C.

`COc1ccc(-c2ccc(C(=O)Nc3ccc4cc(CN5CCCC5)cnc4c3)cn2)cc1` had a melting point of 246 to 248 °C.

Take `CC(C)CCc1ccc(C#N)c(=O)[nH]1`: the melting point lay within 110 to 112 °C.

In turn, `C=CCOc1cc2c(cc1Br)CC[C@H]2CCNC(=O)CC` displayed a melting point of 86 to 87 °C.

As for `COc1cc(Nc2nccc(-c3sc(Nc4ccccc4)nc3C)n2)cc(OC)c1`, the melting point is 191 to 194 °C.

With `N#CC1(N2CCCC2)CCC2(CC1)OCCO2`, the melting point lay in the range of 65 to 67 °C.

For `CCCCCc1c(C(C)C)nc(C(C)C)c(CO)c1-c1ccc(F)c(C(O)c2ccc(F)cc2)c1` (stereo not drawn), the melting point lay within 118 to 120 °C.

`Cc1ccc(O)c(C(C)(O)c2ccccc2)c1` (stereo not drawn) returned a melting point of 100 °C.

With `O=C1COC(CNC(=O)c2cccnc2Oc2ccc(F)cc2)CN1` (stereo not drawn), the melting point is 157 to 159 °C.

The compound `COC(=O)C=Cc1nc(C(=O)CCCC(=O)OC)ccc1OC` registered a melting point of 87 to 89 °C.

`COc1cc(-c2ccc(Cl)s2)cc2oc(=O)c(C)c(C)c12` gave a melting point of 152 to 154 °C.

As for `CN1C(=O)C(=O)NCC1(CCO)c1ccc(Cl)c(Cl)c1` (stereo not drawn), the melting point was found to be 260 °C.

With `CCCNc1cc(C(=O)O)cc(S(N)(=O)=O)c1Oc1ccccc1`, the melting point was in the range of 223 to 224 °C.

With `COc1cc(OC)nc(NC(=O)NS(=O)(=O)c2ccccc2C2CCOC2=O)n1` (stereo not drawn), the melting point was in the range of 164 to 166 °C.

`CCCN(CCCc1csc2ccc(F)cc12)C1COc2cccc(OC)c2C1` (stereo not drawn) showed a melting point of 78 °C.

`CC(C)n1c(=O)[nH]c(C(F)(F)F)c(Br)c1=O` had a melting point of 149 to 150 °C.

`CCCCc1nc2c(N)nc3ccccc3c2n1CCCCO` displayed a melting point of 184 to 186 °C.

With `COc1ccc(CN(C)CCCOc2ccc(NC(=O)c3cccc4c(=O)c5ccccc5[nH]c34)cc2)cc1OC`, the melting point stood at 130 °C.

In turn, `C#CCOc1ccc2c(C)cc(=O)oc2c1C(=O)C=Cc1ccccc1` yielded a melting point of 140 to 142 °C.

`C=CCON=C(C(=O)OCC)c1csc(N)n1` returned a melting point of 102 to 104 °C.

The compound `CCCN(Cc1ccc(-c2ccccc2-c2nc(=O)s[nH]2)cc1)c1nc(C)ncc1C(=O)OCC` yielded a melting point of 173 to 175 °C.

The compound `O=C(Nc1cccc2c(=O)cc(C(=O)O)oc12)c1ccc2c(c1)CC(CSCc1ccccc1)O2` (stereo not drawn) had a melting point of 122 to 125 °C.

The compound `Cc1ccccc1-n1ccc2c(NCCO)nc3c(C)cccc3c21` registered a melting point of 187 to 188 °C.

Compound `NS(=O)(=O)c1ncccc1F` gave a melting point of 124 to 125 °C.

For the compound `Nc1ccccc1C(=O)COC(=O)c1ccccc1`, the melting point was 125 °C.

Regarding `Cc1ccc(S(=O)(=O)OCC(C)O)cc1` (racemic), the melting point is 49.5 to 50 °C.

For the compound `CCCCCCNC(=O)NOCC(O)CN1CCCCC1` (stereo not drawn), the melting point lay within 50 to 52 °C.

The compound `Nc1cc(Cl)ccc1CO` returned a melting point of 104 to 105 °C.

Compound `CCSCCC(=O)NCC(=O)N1Cc2ccccc2Oc2ccc(Cl)cc21` displayed a melting point of 148 to 151 °C.

As for `CCC(c1ccccn1)N(Cc1ccc(C(=O)OC)cc1)S(=O)(=O)c1ccc(F)cc1` (stereo not drawn), the melting point fell in the range of 82 to 84 °C.

`CCOc1cccc(-c2ccnc3c(C(=O)c4cccs4)cnn23)c1` showed a melting point of 146 to 148 °C.

Take `Fc1ccc(C(Cl)(c2ccccc2)c2ccccc2)cc1`: the melting point was 88 °C.

The compound `COc1ccc2nc(C(=O)O)c(OCc3ccccc3)cc2c1` gave a melting point of 272 to 275 °C.

On to `CC(=O)NC1(c2ccc(CN3CCN(c4ccccc4)CC3)cc2)CC1`, for which the melting point was in the range of 129 to 140 °C.

In the case of `CC(CN(C)C)Oc1ccccc1CC(=O)N1CC2C(C1)C(c1ccccc1)(c1ccccc1)CCS2=O` (racemic), the melting point came to 150 °C.

With `O=[N+]([O-])C(F)(CCc1nnc(C(F)(F)C(F)(F)F)o1)[N+](=O)[O-]`, the melting point lay in the range of 3 to 5 °C.

For `CCCOc1ccc(C(=O)O)c(OCc2ccc(OCCc3nc(-c4ccccc4)oc3C)cc2)c1`, the melting point fell in the range of 108 to 109 °C.

With `COC(=O)c1cc(CCC2CNc3nc(NC(=O)C(C)(C)C)nc(O)c3C2)c[nH]1` (stereo not drawn), the melting point is 236 to 238 °C.

Consider `CCC(OC(C)=O)c1ccc(Cl)c2nc3n(c12)CCCN3c1cnc(N(C)C)cc1C` (stereo not drawn), for which the melting point fell in the range of 159 to 160 °C.

On to `Nc1ccccc1Cn1cc(C(F)(F)F)ccc1=O`, for which the melting point was in the range of 83.4 to 85.3 °C.

In the case of `Cc1n[nH]c(C)c1Oc1cc(C#N)cc(C#N)c1`, the melting point lay in the range of 182 to 185 °C.

`COc1ccc(OCc2ccccc2)c(C(=O)C=Cc2cccc([N+](=O)[O-])c2)c1` had a melting point of 108 to 110 °C.

For `CN(C(=O)Oc1ccc([N+](=O)[O-])cc1)c1ccc(-c2ncn(-c3ccc(OC(F)(F)F)cc3)n2)cc1`, the melting point lay in the range of 145 to 147 °C.

As for `CSCOC1CCC2C3CCC4=CC(=O)C=CC4(C)C3(F)C(OC(C)=O)CC12C` (stereo not drawn), the melting point lay in the range of 142 to 143 °C.

The compound `OC(Cn1cncn1)(Cn1ncnc1S)c1ccc(F)cc1F` (stereo not drawn) returned a melting point of 187 °C.

For `Cc1cc(C)cc(Sc2c(C(C)C)c(=O)[nH]c(=O)n2CC2=CCCC2CO)c1` (stereo not drawn), the melting point was in the range of 66 to 68 °C.

In turn, `Nc1ccc(F)c(Cl)c1F` had a melting point of 58 °C.

For the compound `CCCN(CCC)C1Cc2cccc3ccc(=O)n(c23)C1` (stereo not drawn), the melting point was in the range of 82 to 84 °C.

`Cc1cc2c(Br)ccc([N+](=O)[O-])c2cn1` registered a melting point of 146 °C.

Regarding `CC(C)(C)OC(=O)c1ncn2c1[C@@H]1CCCN1C(=O)c1c-2ccc(F)c1Cl`, the melting point was in the range of 211 to 212 °C.

With `Clc1ccc(C2(Cn3ccnc3)OC2c2ccc(Cl)cc2Cl)cc1` (stereo not drawn), the melting point was 102 to 103 °C.

For the compound `NS(=O)(=O)c1ccc(-n2nc(C(F)F)cc2-c2nc3ccc(F)cc3s2)cc1`, the melting point is 255 °C.
